For test [1], the system named is CaMKII. The test is classed as biochemical. The conditions noted are these: for potency of CaMKII inhibition of CN19 combination mutants: comparator as stated in the value; for effect of further mutation on potency of CaMKII inhibition: CN19a2v background; for IC50: read-out: IC50 of CaMKII inhibition. Here is the method: CaMKII activity assays. Standard CaMKII assays were done for 1 min at 30° C. previously described, with 20 nM CaMKII (subunit, not holoenzyme concentration), 50 mM PIPES pH 7.2, 0.1 mg/ml BSA, 10 mM MgCl2, 100 μM [γ-^32P] ATP (˜1 Ci/mmol), 1 mM CaCl2, 1-2 μM CaM, and 30-60 μM AC2 peptide (or syntide2). The reactions were spotted onto Whatman P81 phosphocellulose paper rectangles (˜2×2.5 cm). To remove free radioactivity, the paper rectangles were rinsed and washed for 30 min under agitation in 0.5% phosphoric acid or water. […] Radioactivity of the bound peptides was quantified in a Beckman 6000TA scintillation counter by the Cherenkov method. Any changes of the standard protocol were done as indicated. For assays of the GFP-CaMKIIα mutants, kinase amounts were normalized by GFP fluorescence in the extract, and total protein was adjusted with Cos-7 extracts.

For test [2], the target named is T1, CaMKII binding to GST-NR2B-c (Homo sapiens, UniProt Q9UQM7).
T1 construct: made in house; host or cells: CaMKII: baculovirus/Sf9; GST-NR2B-c and CaM: bacteria
Briefly: Ca2+/CaM-induced CaMKII binding to immobilized GST-NR2B-c. Particulars: Western blot of eluted CaMKII.
Method: CaMKII binding to NR2B-c was assessed as previously described. Briefly, GST-NR2B-c was immobilized on anti-GST coated microtiter plates, then overlaid with 100 nM CaMKII in presence of Ca^2+/CaM and 1 or 5 μM of various CN peptides. After extensive wash, protein was eluted from the plates by boiling in SDS-loading buffer. Eluted CaMKII was detected by Western-blot as described above.

Test [3] has as its target T2, CaMKII (Homo sapiens, UniProt Q9UQM7).
T2 construct: made in house; host or cells: baculovirus/Sf9 cells
Briefly: Autonomous CaMKII activity (pre-autophosphorylated CaMKII). The format is biochemical. The protocol:
(§1) Stimulated CaMKII activity was assessed using purified CaMKII, [γ^32P]ATP, and the CaMKII substrate, syntide2. Reaction was initiated by addition of calcium and calmodulin. To measure autonomous activity, CaMKII was pre-autophosphorylated by incubation with calcium and calmodulin, which was then chelated by addition of EDTA prior to adding the kinase to syntide2 and [γ^32P]ATP. […] To measure self-association, purified CaMKII was incubated for five minutes with 1mM ADP, calcium and calmodulin, and the appropriate inhibitor. The reaction mixture was then centrifuged to pellet the self-associated kinase. The supernatant (S) was removed and saved and the pellet (P) was resuspended. Both were then resolved by SDS-PAGE and western-blotted for CaMKII. Self-associated kinase is found in the pellet.

Test [4] deals with Langerhans' islets. In words: Glucose-induced insulin secretion from isolated Langerhans' islets. The conditions noted are these: 11 mM glucose; EGTA 0.5 mM, KN93 10 μM, antCN27 5 μM, tatCN21 5 μM. The format is cell-based, rat.
Method: Insulin secretion. Langerhans' islets acutely isolated from adult male Wistar rats (Harlan) were obtained. […] Inhibitors or EGTA were added 30 min before stimulation. Insulin secreted into the medium during 90 min stimulation was measured using an ELISA kit (CrystalChem).
Test [5] has as its system hippocampal and cortical cultures. In words: Glutamate induced neuronal cell death measured by LDH release. The format is cell-based, rat. Here is the method: In another example, neuronal cell death is measured by LDH release. In this exemplary method, glutamate was used to induce neuronal cell death, A portion of CaMKIIN was fused to a cell penetrating molecule to generate tatCN21a construct.

Test [6] has as its target T2, CaMKII. Briefly: CaMKII self-association in vitro. The test is classed as biochemical. The protocol:
as §1

Test [7] concerns the target T2, CaMKII. Briefly: CaMKII auto- and protein-phosphorylation (MAP2, T286, T305; immuno-blot). The format is biochemical. Particulars: KN93 10 μM. Here is the method:
CaMKII auto- and protein-phosphorylation. 10 nM MAP2 (˜140 nM phosphorylation sites) was used instead of substrate peptide, and reaction times were 5 min, unless indicated otherwise. CaMKII concentration was 100 nM subunits (=8.3 nM holoenzymes). Auto- and MAP2-phosphorylation were assessed by Immuno-blot analysis previously derived (Bayer et al., 2002, incorporated herein by reference) with phospho-T286- or -T305-specific antibodies (1:500; PhosphoSolutions) and an anti-phospho-Thr antibody (1:500; Zymed), respectively. Total CaMKIIα was detected with CBα2 antibody (1:2000; GIBCO). Protein were separated on 10% poly-acrylamid SDS Gels, and electro-blotted onto “Protran” 0.2 μm pore nitrocelluse filters (e.g. Schleicher & Schull) or onto PVDF filters (e.g. Perkin Elmer). Alternatively, for quantitative analyses, a vacuum-driven slot-blot manifold (e.g. Schleicher & Schull) was used for transfer onto PVDF membranes. PVDF membranes were air-dried for 15 min, then wetted in Methanol. Blots were blocked in 5% milk in TBS-T (Tris-buffered saline pH 7.6 with 0.1% Tween-20). Antibodies were incubated for 45-60 min at room temperature in 2.5% milk in TBS-T; for the anti-phospho-T305 antibody, 2.5% BSA was used instead. After secondary antibody incubation (anti-mouse or anti-rabbit horseradish peroxidase conjugate; Amersham; 1:4000), detection was done using the “Western Lightning” system (Perkin Elmer) and exposure to “Hyperfilm” (Amersham). For quantitative analysis, chemoluminescence was captured using a ChemiImager 4400 imaging system (Alpha Innotek) instead of film. Only non-saturated images were analyzed, using AlphaEase software.

Test [8] deals with CaMKI (Homo sapiens, UniProt Q14012). Briefly: CaMKI activity / inhibition. The format is biochemical. The text has this:
For curve fit, the Hill coefficient was set as 1.

The target in test [9] is calmodulin (CaM) (Homo sapiens, UniProt P0DP23). Briefly: Binding to calmodulin (slot blot, blot overlay, TA-CaM competition with CBD). Particulars: for binding of biotinylated CaM to immobilized peptide: slot blot.
Method: TA-labeled CaM represents reduced fluorescence after binding to CaMKII or its CaM binding domain (CBD; −0.05 nM kD for CaM^5; see also FIG. 9G).
Measured was AC2 phosphorylation as described^4. Error bars show s.e.m.
The test system of test [10] is protein kinase C (PKC). Briefly: Phosphorylation of CN19 peptides by PKC in vitro. The format is biochemical. The text has this:
CN19 phosphorylation at S12 by protein kinase C reduces potency of CaMKII inhibition. In another exemplary method, protein kinase C (PKC) activity was examined with respect to CN19 as a substrate or the S12 mutant. […] The CN19 region most sensitive to Ala substitutions (surrounding R11) contains a potential PKC phosphorylation site (S12).
FIGS. 22A and 22B represent CN19 phosphorylation at S12 by PKC reduces potency of CaMKII inhibition. A, PKC phosphorylated CN19 but not its S12A mutant in vitro, as measured by phosphate incorporation. The phosphorylation rate of CN19 was >50% compared to a MARCKS peptide substrate of PKC. […] S12 was sensitive also to various other mutations (see Table 1 and data not shown). Error bars indicate s.e.m. in all panels.

“And” between values parts separate entries of the source, which are not always exact repeats. Equal values may be shown once. “Also recorded” adds a separate entry of the source. Read-outs that look alike come from different tables or passages of the source. Where no end group is shown, it is not given here.

17 compounds from US10300107B2, “Compositions and methods for CaMKII inhibitors and uses thereof” (THE REGENTS OF THE UNIVERSITY OF COLORADO, priority 2007, dated 2019) can be followed below.

Chain of CaMKI (Q14012 whole entry, species assumed): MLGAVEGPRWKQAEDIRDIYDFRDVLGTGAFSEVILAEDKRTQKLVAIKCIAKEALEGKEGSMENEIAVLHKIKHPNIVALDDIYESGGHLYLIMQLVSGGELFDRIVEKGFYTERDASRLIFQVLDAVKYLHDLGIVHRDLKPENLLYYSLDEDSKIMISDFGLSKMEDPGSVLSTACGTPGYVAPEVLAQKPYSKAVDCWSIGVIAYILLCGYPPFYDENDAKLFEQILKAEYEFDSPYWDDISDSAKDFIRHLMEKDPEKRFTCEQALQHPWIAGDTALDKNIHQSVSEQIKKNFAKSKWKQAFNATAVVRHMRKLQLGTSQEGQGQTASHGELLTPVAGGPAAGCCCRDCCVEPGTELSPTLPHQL

In the case of `COc1ccc(S(=O)(=O)N(CCO)c2ccccc2CN(C)C/C=C/c2ccc(Cl)cc2)cc1` [KN93, reference compound], the “calcium and calmodulin stimulated CaMKII activity” value in test [1] (substrate syntide2) was “inhibit calcium and calmodulin stimulated CaMKII activity”. In [2], the “CaMKII binding to immobilized GST-NR2B-c / NR2B” value is given as “inhibited binding”. The “autonomous CaMKII activity” value in test [3] is “only tatCN21 inhibits autonomy”. In addition, the glucose-induced insulin secretion result in [4] is given as “inhibited”. Besides, the “glutamate induced neuronal cell death” value was “not when added after the insult; also recorded: only when applied during but not after glutamate insult” in test [5] (added 1 h after the insult) and “protective only when present during the insult; also recorded: reduce by half” in test [5] (present during the insult). Besides, the “CaMKII self-association in vitro” value in [6] is “inhibited”. Besides, the “CaMKII T305 auto-phosphorylation” value in [7] (CN21 5 μM) is on record as “blocked T305”. Moreover, the “CaMKII T286 auto-phosphorylation” value in test [7] (CN peptides 1-5 μM) is reported as “essentially completely blocked”.

Turning to “CN19a2: CN19 double mutant P3A, R14A, SEQ ID NO: 25 (KRAPKLGQIGRSKAVVIED; Derived from CamKIIN with amino acid substitutions)”, the “potency of CaMKII inhibition of CN19 combination mutants” value in test [1] is “largest increase in CaMKII inhibition potency; also recorded: most potent double mutant of CN19”; in test [1] (listed as a2), “higher potency than the a3 mutant; also recorded: significant inhibition even at 10 nM”.

For the compound KRPPKLGQIGRSKAVVIED [R14A], the “increase of potency of CaMKII inhibition compared to CN19” value in test [1] is “over 10 fold”. In addition, the “effect of single CN19 mutation on potency of CaMKII inhibition” value in test [1] (compared to CN19 wild type) is listed as “significantly increased potency; also recorded: very potent”. Moreover, the “IC50 of CaMKII inhibition” value in [1] (phosphorylation of syntide 2) is “single digit”.

Take KRAPKLGQIGRQKAVVIED [CN19a2v V12Q]: in test [1], the “effect of further mutation on potency of CaMKII inhibition” value is “significantly increase potency; also recorded: dramatically increase CaMKII inhibition”. In [1] (phosphorylation of syntide 2), the IC50 is roughly 1 nM.

“V16D: CN19 position 16 substituted with D (rational mutagenesis) (KRAPKLGQIGRVKAVDIED)”: the “Effects of individual CN19 mutations on CaMKII inhibition: column +” value in [1] (value = substituting residue listed under +) was “D*”.

For the compound KRAPKLGQIGRVKAVVIED [CN19a2v], in test [1], the “increase of potency of CaMKII inhibition compared to CN19” value was “about 5 fold” and the “potency of CaMKII inhibition of CN19 combination mutants” value was “without loss of inhibition potency; also recorded: significantly stronger compared to CN19a3 with additional S12V mutation; also recorded: did not reduce potency”. The IC50 in test [1] (phosphorylation of syntide 2) was ~20 nM and 20 nM. In [8], this compound displayed an IC50 of roughly 18000 nM.

KRPPKLGQIGRSKRVVIEDD [CN20]: the concentration for half-maximal inhibition (IC50) in [1] (phosphorylation of syntide 2) is roughly 100 nM.

Take “tat: cell penetrating sequence YGRKKRRQRRR, SEQ ID NO:15 [reference compound]”: in test [9], the “binding of biotinylated CaM to immobilized peptide” value was “did not bind”. In test [8], the “effect on CaMKI activity” value is “statistically significant but much milder effects”.

As to “CN19a3: CN19 triple mutant P3A, K13A, R14A (KRAPKLGQIGRSAAVVIED)”, the “potency of CaMKII inhibition of CN19 combination mutants” value was “significantly increased over CN19 wild type; also recorded: significantly increased potency compared to single mutant with the highest potency, R14A” in test [1] and “significantly increased potency of CaMKII inhibition over CN19 wild type; also recorded: slightly better inhibition than the aX mutant” in test [1] (listed as a3).

`CC1CNCCN1S(=O)(=O)c1cccc2cnccc12` (stereo not shown) [H7, reference compound]: the “CaMKII binding to immobilized GST-NR2B-c / NR2B” value in test [2] is “did not”.

Regarding KRPPKLGQIGRSKRVVIED [CN19], in test [10], the “phosphorylated by PKC” value is reported as “phosphorylated by PKC” and the “phosphorylation rate by PKC compared to MARCKS peptide substrate” value is listed as greater than 50%. For the same compound, in test [8], the half-inhibitory concentration (IC50) was roughly 36000 nM and the “effect on CaMKI activity” value is on record as “no significant effect”.

For RQIKIWFQNRRMKWK [ant], in [9], the Kd was roughly 5 nM, the “competition with CBD for binding of TA-labeled CaM” value is “compete” and the “binding of biotinylated CaM to immobilized peptide” value is reported as “Direct binding”. For the same compound, the “interference with Ca2+-dependent CaM binding to brain proteins” value in [9] (blot overlay assay, 5 μM peptide) is “also interfered with such CaM binding, but somewhat less efficiently than antCN27; also recorded: affect Ca^2+-dependent CaM binding”.

As to `O=C(O)CN(CCOCCOCCN(CC(=O)O)CC(=O)O)CC(=O)O` [EGTA], in [4], the glucose-induced insulin secretion entry is reported as “inhibited”.

Consider KRAPKLGQIGRVKAVDIED [CN19a2v V16D], for which, in [1], the “effect of further mutation on potency of CaMKII inhibition” value is “significantly increase potency; also recorded: dramatically increase CaMKII inhibition”. The IC50 in test [1] (phosphorylation of syntide 2) is roughly 1 nM.

In the case of `N[C@@H](CCCP(=O)(O)O)C(=O)O` [APV], the “glutamate induced cell death” value in test [5] (7DIV cortical, added 1-6 hours post insult) is “did not”. Further, the “glutamate induced neuronal cell death” value in [5] (present during the insult) was “only reduces cell death when present during the insult”.

For the compound “CN27: CaM-KIINtide, previously identified inhibitory region of CaM-KIIN, SEQ ID NO:17 (KRPPKLGQIGRSKRVVIEDDRIDDVLK; Derived from CaMKIIN) [reference compound]”, the “inhibition of CaMKII isoforms α and β” value in test [1] is “inhibit both major brain CaMKII isoforms, α and β”. Moreover, in test [8], the “effect on CaMKI activity” value was “no significant effect”.

For the compound “CN17a: C-terminal truncation of CN21a by 4 amino acids (KRPPKLGQIGRSKRVVI)”, the “inhibitory potency on CaMKII activity” value in test [1] (CN truncation peptides, substrate peptides AC2 or syntide 2) is listed as “still clearly affected CaMKII activity”.
